Experimental findings from patent US10544156B2, “Hemi-synthetic trilobine analogs for use as a drug” (PIERRE FABRE MEDICAMENT, priority 2015, dated 2020) are described below.

Experiment [1] deals with CMV promoter in KG-1-Luc cells. The experiment in a line: CMV promoter analysis by NOMe-Seq (CpG methylation and chromatin accessibility). The format is cell-based, human. As to conditions: at 5 μM, 24 h; for DNA demethylation, KG1 CMV-Luc model: methylated cytosine treated vs non treated; for Chromatin accessibility, KG1 CMV-Luc model: ratio of GpC methylation. The protocol: Using the Nucleosome Occupancy and Methylome Sequencing (NOMe-Seq) technique, the methylation status of the CMV promoter and the position of the nucleosomes on such promoter were both analysed.
NOMe-seq is a modified version of the methylation-dependent single promoter assay described by Miranda et al. (Curr Protoc Mol Biol. 2010 21.17.1-16) and the methylase-based DNA assay was performed as previously described with minor modifications. After nuclei extraction, GpC DNA methyltransferase M.CviPI (New England Biolabs) reactions were done in M.CviPI reaction buffer. GpC methyltransferase treatment was followed by DNA extraction, sodium bisulfite conversion, PCR amplification of the region of interest, cloning, and sequencing of individual clones to reveal the structure of single replicas as functional units. After treatment with the compounds or with DMSO, KG-1-Luc cells were centrifuged for 5 min at 500×g. Cell pellets were washed in ice-cold PBS, resuspended in 1 mL of ice-cold nuclei buffer [10 mM Tris (pH 7.4), 10 mM NaCl, 3 mM MgCl2, 0.1 mM EDTA, and 0.5% Nonidet P-40, plus protease inhibitors] per 2×10^6 cells, and incubated on ice for 10 min. Nuclei were recovered by centrifugation at 900×g for 5 min, washed twice in nuclei wash buffer [10 mM Tris (pH 7.4), 10 mM NaCl, […], and 0.1 mM EDTA containing protease inhibitors], and resuspended with 200 μL in 1×M.CviPI reaction buffer supplemented with 0.3 M sucrose, 160 μM SAM (New England Biolabs). 100 μL of purified genomic DNA were treated with 100 U of M.CviPI for 15 min at 37° C. in 200 μL final volume. The other part of 100 μL of purified genomic DNA were not treated with 100 U of M.CviPI but just incubated for 15 min at 37° C. to obtain CpG methylation profile. Reactions were stopped by the addition of an equal volume of stop solution [20 mM Tris.HCl (pH 7.9), 600 mM NaCl, 1% SDS, 10 mM EDTA, and 400 μg/mL Proteinase K] and incubated at 55° C. overnight. DNA was purified by phenol/chloroform extraction and ethanol precipitation. Bisulfite conversion was performed with the EZ DNA Methylation-Gold Kit (Zymo Research). Bisulfited DNA was eluted with 12 μL of water and 8 μL were used for CMV amplification.
The CMV promoter DNA amplification was carried on 8.3 μL eluted bisulfited DNA in 20 μL PCR reaction containing 1×KAPA2G Buffer A, 2.0 mM MgCl2, 200 μM dNTPs, 125 nM each primer and 1.0 units KAPA2G™ Robust HotStart DNA Polymerase (KapaBiosystems) on C1000 Touch™ thermal cycler 95° C. 3 min following by 95° C. for 20 sec, 55° C. for 30 sec, 72° C. for 30 sec×40 cycles and final extension at 72° C. 1 min. PCR fragments were quality controlled by agarose gel electrophoresis.
Steps of cloning and sequencing were as those described previously except that M13 PCR was used to amplify the cloned sequence in 20 μL PCR reaction volume containing 1×KAPA2G Buffer B, 2.0 mM MgCl2, 200 μM dNTPs, 125 nM each primer and 1.0 U KAPA2G™ Robust HotStart DNA Polymerase (KapaBiosystems) on C1000 Touch™ thermal cycler 95° C. 3 min following by 95° C. for 20 sec, 55° C. for 30 sec, 72° C. for 30 sec×40 cycles and final extension at 72° C. 1 min.
Genomic alignment and bisulfite sequence analysis was performed largely as previously described (Berman et al. Nat Genet 2012, 44, 40-6).
BISMA (Bisulfite Sequencing DNA Methylation Analysis) software was used for CpG methylation analysis of primary bisulfite sequencing data from subcloned individual molecules (Rohde et al. BMC Bioinformatics 2010, 11, 230). Methyl Viewer (Pardo et al. Nucleic Acids Res 2011, 39, e5) was used to obtain GC methylation results and nucleosome occupancy. The ratio of methylation is representative of the chromatin accessibility by M.CviPI and nucleosome occupancy. The combined methylation status for each clone by CpG (BISMA) or GpC (Methyl Viewer) site has been assembled. […]

Experiment [2] has as its target T1, human C-terminal DNMT3A (623-908a.a.) (Homo sapiens, UniProt Q9Y6K1).
T1 construct: The human C-terminal DNMT3A (623-908a.a.); made in house
The experiment in a line: hDNMT3A assay (restriction-based fluorescence assay). The format is biochemical. The conditions noted are these: for inhibition at 10 µM: read-out: hDNMT 3A inhibition, Inhibition (%) 10 μM; for inhibition at 32 µM: read-out: hDNMT 3A inhibition, Inhibition (%) 32 μM. An excerpt: hDNMT3A enzyme inhibition was adapted from the restriction-based fluorescence assay protocol as described in the literature (Ceccaldi et al. Chem Bio Chem 2011, 12, 1337-1345). Briefly, a 5′-labelled biotin oligonucleotide is hybridized to its complementary strand labelled with 6-carboxyfluorescein at the 3′-end into a 384 well microplate (black Optiplates; Perkin Elmer) pre-coated with avidin. The duplex contains a unique CpG site overlapping with a restriction site of a methylation sensitive restriction enzyme. The human C-terminal DNMT3A (623-908a.a.), produced as described in (Gros et al. Nucl. Acids Res. 2013, 41(19):e185), was added in each well (200 ng/well) and mixed with the chemical compounds at desired concentrations and freshly prepared SAM (20 μM final concentration) to start the reaction in a total volume of 50 μL. After 1 hour incubation at 37° C. each well were washed three times with PBS, Tween-20 0.05%, NaCl (500 mM) and three more times with PBST. Specific fluorescent signals were detected with the methylation-sensitive restriction enzyme HpyCH4IV (NEB) as described and measured on a Perkin Elmer Envision detector. The percentage of inhibition is reported. The formula used to calculate the percentage of inhibition is [(X−Y)/X]×100, where X is the signal determined in the absence of the inhibitor and Y is the signal obtained in the presence of the inhibitor. The concentration at which 50% of efficacy of inhibition is observed (EC50) was determined by analysis of a concentration range of the tested compound in triplicates. The non-linear regression fittings with sigmoidal dose-response (variable slope) were performed with GraphPad Prism 4.03 (GraphPad Software).

The mark [3] stands for this setting: concentration at which 50% of efficacy of inhibition is observed, read-out: EC50 (μM), hDNMT 3A inhibition.
[4] abbreviates: interval line below the EC50 of the same compound, read-out: EC50 (μM), range given.

As usually defined, the EC50 is the midpoint of the concentration-response curve. One may read the inhibition as the percentage by which the read-out fell short of the control.

Read-outs that look alike come from different tables or passages of the source.

T1 sequence (Q9Y6K1 627-912 limits assumed): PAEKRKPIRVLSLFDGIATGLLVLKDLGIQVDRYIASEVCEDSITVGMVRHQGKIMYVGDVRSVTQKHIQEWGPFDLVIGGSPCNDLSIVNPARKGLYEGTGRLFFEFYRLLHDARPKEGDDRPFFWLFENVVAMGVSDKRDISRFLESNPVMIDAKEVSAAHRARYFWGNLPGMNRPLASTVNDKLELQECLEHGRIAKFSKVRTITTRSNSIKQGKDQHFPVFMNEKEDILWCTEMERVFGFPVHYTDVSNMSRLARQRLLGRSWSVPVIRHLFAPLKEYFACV

Regarding `CCN(CC)CCCNC(=S)N1CCc2cc3c4cc2[C@@H]1Cc1ccc(OC)c(c1)Oc1ccc(cc1)C[C@H]1c2c(cc(OC)c(c2O4)O3)CCN1C(=S)NCCCN(CC)CC` [Product 41], in experiment [1], the “DNA demethylation, KG1 CMV-Luc model” value is recorded as 0% and the “Chromatin accessibility, KG1 CMV-Luc model” value (from here on “Chromatin accessibility”) is reported as 2.1 ± 0.1. Besides, the EC50 in experiment [2] (setting [3]) lay in the range of 0.557 to 0.91 µM. Moreover, in experiment [2], the inhibition at 10 µM stood at 94% and the inhibition at 32 µM was 95%.

As to `CNC(=O)N1CCc2cc(OC)c3c4c2[C@@H]1Cc1ccc(cc1)Oc1cc(ccc1OC)C[C@H]1c2cc(c(cc2CCN1C)O3)O4` [Product 44], in experiment [1], the “DNA demethylation, KG1 CMV-Luc model” value is listed as −53 ± 6% and the “Chromatin accessibility” value was 2.3 ± 0.2. In addition, the EC50 in experiment [2] (setting [3]) was determined as 3.96 µM. Moreover, the EC50 in experiment [2] (setting [4]) is 3.04 to 5.17 µM. In experiment [2], the inhibition at 10 µM came out at 82% and the inhibition at 32 µM was 96%.

On to `COc1ccc2cc1Oc1ccc(cc1)C[C@@H]1NCCc3cc(OC)c4c(c31)Oc1cc3c(cc1O4)CCN(C)[C@H]3C2` [Trilobine (1), trilobine], for which, in experiment [1], the “DNA demethylation, KG1 CMV-Luc model” value is −37 ± 8% and the “Chromatin accessibility” value is on record as 1.9 ± 0.1. In experiment [2] (setting [3]), the EC50 came to 3.8 µM. Moreover, in experiment [2] (setting [4]), the EC50 was 3.21 to 4.49 µM. In addition, in experiment [2], the inhibition at 10 µM came out at 88% and the inhibition at 32 µM was determined as 96%.
